Results published in patent US6656921B1, “Use of zinc hyaluronate against peptic ulcer” (Richter Gedeon Vegyeszeti Gyar RT., priority 1997, dated 2003).

How the values were obtained:
[1] = system: acetic acid induced chronic gastric ulcer; assay: Inhibition of acetic acid induced chronic gastric ulcer; assay type: in vivo, rat; details: for Ulcerated area mm^2 ± S.E.M.: day 5 to 14 after surgery
Experimental: Female, RG Wistar rats weighing between 120-150 g were used. Before the surgery animals were deprived of food for 24 hours but received water ad libitum. The chronic gastric ulcer was induced by the injection of 25 μl/animal of 20% (v/v) acetic acid into the gastric wall under light ether anaesthesia according to the method similar to that described by Takagi et al. (1969). The oral treatment with the test compounds was started five days after the surgery and continued in a once-a-day regimen up to the 14th day. The animals were killed on the 15th day and their stomachs were dissected. The severity of ulceration was evaluated by the measurement of the diameter of the ulcers and the area affected was calculated. The healing effect was expressed as differences in percentage between the control and test group values.

[2] = system: gastrointestinal motility; assay: Gastrointestinal motility in the charcoal propulsion test; assay type: in vivo, rat; details: 100 mg/kg p.o.
Experimental: Experiments were performed on female, RG-Wistar rats weighing 120-140 g, which were fasted for 24 hours but received water ad libitum.
The experimental procedure was carried out according to the technique similar to that described of P. A. Janssen and A. J. Jageneau [J. Pharm. Pharmacel. 9, 381 (1957)].
Test compounds were given orally at a dose of 100 mg/kg. Control animals received physiological saline solution instead of test compounds. 30 minutes later, the 5% (w/v) charcoal suspension was administered orally at a volume of 0.5 ml/animal. 60 minutes after the charcoal treatment the animals were sacrificed by cervical dislocation. The intestine from pylorus to cecum was removed, its lengths measured along with the distance traversed by the charcoal meal.
Motility was expressed as the ratio of length of charcoal suspension to the length of the whole intestine.

zinc hyaluronate [Zinc hyaluronate (M)]
Ulcerated area mm^2 ± S.E.M. ([1]; 0.1 mg/kg p.o. once a day): 9.4 ± 2.3 mm^2 | Ulcerated area mm^2 ± S.E.M. ([1]; 1.0 mg/kg p.o. once a day): 7.6 ± 1.4 mm^2 | Effect on healing of acetic acid induced chronic ulcer (in words) ([1]; rat, in vivo): accelerated the healing | Effect on the intestinal motility (in words) [2]: absence of change in activity | Ratio of charcoal suspension to the whole intestinal part [2]: 0.83 ± 0.03 | Propulsion of charcoal suspension mm ± S.E.M. ([2]; 30 min before charcoal, 60 min after charcoal): 655 ± 3.9 mm
